Laboratory results published in US20090269770A1, “METHODS FOR EVALUATION PROGNOSIS AND FOLLOW-UP OF DRUG TREATMENT OF PSYCHIATRIC DISEASES OR DISORDERS” (priority 2008, published 2009).
“And” between values parts separate entries of the source, which are not always exact repeats. Equal entries are not always repeated.

What was measured:
Assay type in all cases: in vivo, human
schizophrenic patients = test: Simpson-Angus Scale (SAS) for extrapyramidal side effects; settings: for Extra-pyramidal side effects score: one line per patient I-VI
Method: Fluvoxamine (100 mg/day) was added in an open study format to the antipsychotic treatment, which remained steady. Clinical state was assessed by psychiatrists using validated rating scales for negative (SANS) and positive (SAPS) symptoms (Silver et al., 2003) prior to fluvoxamine treatment and then weekly until the end of the trial period. Total SANS scores and summary scores for […] blunting, alogia, anhedonia and […] factors were the outcome measures. Extrapyramidal symptoms were assessed with the Simpson-Angus Scale (SAS) for extrapyramidal side effects (Simpson and Angus, 1970). Blood samples were taken at baseline (day 0), before addition of fluvoxamine, after 3 weeks of combined treatment, a time when the initial clinical effect is expected to be seen (Silver et al., 2003), and after 6 weeks of the combined treatment.

[1] = system: PMC from schizophrenic patients; test: Real-time RT-PCR of GABAAβ2 and PKCβ2 mRNAs in PMC (8 patients)
Method: FIGS. 2A-2B show real-time RT-PCR analysis of GABAAβ2 (2A) and PKCβ2 (2B) mRNAs in PMCs from schizophrenic patients treated with an antipsychotic drug combined with the antidepressant agent fluvoxamine. Fluvoxamine (100 mg/day) was added in an open study format to the constant antipsychotic treatment of 8 patients suffering from chronic schizophrenia with persistent negative symptoms. Total RNA, isolated from PMCs of these patients at baseline (day 0, BL) as well as following 1, 3 and 6 weeks (1W, 3W and 6W, respectively) of the combined treatment, was reverse transcribed. cDNA was amplified in real-time PCR using suitable primers for GABAAβ2 and PKCβ2, as described in the Experimental section. The relative expression level of a given mRNA was assessed by normalizing to the reference gene PPIB. For each patient, the expression level of each one of the genes at baseline was arbitrarily set as 1, and the gene expression levels at 3 and 6 weeks were calculated relative to baseline. Lines connecting points indicate samples of the same patient. Dash line indicates average of the samples of different objects. Student's t-test *p<0.05; **p<0.01 for 1, 3 or 6 weeks of fluvoxamine add-on compared with baseline.
Two μg of total RNA were denatured and reverse transcribed using random hexanucleotides (0.5 μg/μl) as previously described (Chertkow et al., 2006). Real-time quantitative assessment was performed using LightCycler with FastStart DNA Master SYBR Green I ready-to use PCR mix kits according to the manufacture's protocol (Roche Diagnostics, Mannheim, Germany). Forty ng cDNA was amplified per sample. Each experimental set included one reaction with water as template to control for cross contamination. […] The results were analyzed in real-time on the provided program of the LightCycler and normalized against a reference gene in order to correct sample-to-sample variation. […] Expression stability of these genes was determined in our samples with ‘Normfinder’ Excel applet (Andersen et al., 2004); PPIB was chosen as the reference gene for normalization. […]

[2] = system: PMC from schizophrenic patients; test: Real-time RT-PCR of IL8Rα, CCR1, CCR7, RGS7 mRNAs in PMC (6 patients)
Method: FIGS. 1A-1D show real-time RT-PCR analysis of CCR1 (1A), CCR7 (1B), IL8Ra (1C) and RGS7 (1D) mRNAs in PMCs from schizophrenic patients treated with an antipsychotic drug combined with the antidepressant agent fluvoxamine. Fluvoxamine (100 mg/day) was added in an open study format to the constant antipsychotic treatment of 6 patients suffering from chronic schizophrenia with persistent negative symptoms. Total RNA, isolated from PMCs of these patients at baseline (day 0, BL) as well as following 3 and 6 weeks (3W and 6W, respectively) of the combined treatment, was reverse transcribed. cDNA was amplified in real-time PCR using suitable primers for CCR1, CCR7, IL8Ra and RGS7, as described in the Experimental section hereinafter. The relative expression level of a given mRNA was assessed by normalizing to the reference gene peptidylprolyl isomerase B (cyclophilin B, PPIB). For each patient, the expression level of each one of the genes at baseline was arbitrarily set as 1, and the gene expression levels at 3 and 6 weeks were calculated relative to baseline. Lines connecting points indicate samples of the same patient. Horizontal lines indicate group means. Student's t-test *p<0.05; **p<0.01 for 3 or 6 weeks of fluvoxamine add-on compared with baseline.
Two μg of total RNA were denatured and reverse transcribed using random hexanucleotides (0.5 μg/μl) as previously described (Chertkow et al., 2006). Real-time quantitative assessment was performed using LightCycler with FastStart DNA Master SYBR Green I ready-to use PCR mix kits according to the manufacture's protocol (Roche Diagnostics, Mannheim, Germany). Forty ng cDNA was amplified per sample. Each experimental set included one reaction with water as template to control for cross contamination. Amplified products were visualized on 1.5% agarose gel. The sequences of the primers, the experimental conditions and the melting temperature of the products are described in Table 2 hereinafter. The results were analyzed in real-time on the provided program of the LightCycler and normalized against a reference gene in order to correct sample-to-sample variation. […] Expression stability of these genes was determined in our samples with ‘Normfinder’ Excel applet (Andersen et al., 2004); PPIB was chosen as the reference gene for normalization. […]
The biochemical data were analyzed by one way analysis of variance (ANOVA) followed by Dunnett's test. […] Clinical response was assessed with repeated measure ANOVA.
In this study, the significant gene expression changes in the PMC of schizophrenic patients, observed in the customized array and shown in Example 1, were verified by real-time RT-PCR. […] The expression level of each candidate was assessed in all samples.

[3] = after 3-6 weeks of the combined treatment

COCCCC/C(=N\OCCN)c1ccc(C(F)(F)F)cc1 [fluvoxamine]
Extra-pyramidal side effects score (schizophrenic patients; 3 W): 0 (5×) and 6
Extra-pyramidal side effects score (schizophrenic patients; 6 W): 0 (5×) and 4
Extra pyramidal side effects change (schizophrenic patients; with augmentation treatment, absent in all, except one patient): did not change significantly
average GABAAβ2 expression increase compared with day 0 [1, 3]: 40-50%
average PKCβ2 expression decrease compared with day 0 [1, 3]: ≥ 90%
average PKCβ2 expression decrease compared with day 0 ([1]; after one week of the combined treatment): about 30%
CCR7 mRNA expression ([2]; 3 and 6 weeks, among the patients): did not show a consistent trend
IL8Rα mRNA expression ([2]; after 3 and 6 weeks of add-on treatment vs initial level, normalized to PPIB): reduced significantly
RGS7 mRNA expression ([2]; after 6 weeks): significantly reduced
CCR1 mRNA expression ([2]; at both time points (3 and 6 weeks), in 5 out of 6 patients): reduced
